US12404279B2, “Deubiquitinase inhibitors and methods of use thereof” (Molecure S.A., priority 2021, dated 2025)
Counter-ions that a name gives are not always drawn.

Molecular target: full-length USP7 (Homo sapiens (Human), UniProt Q93009)
Assay: Enzymatic assay to determine IC50 of USP7 inhibitors (Ubiquitin-Rhodamine 110 cleavage)
Type: biochemical
Conditions: for IC50: 0.5 nM USP7, 0.5 μM Ubiquitin-Rhodamine 110, 45 min at 37° C.; for inhibition at 1 µM: at 1 μM of the test compound, given where IC50 not determined yet, read-out: percent value of inhibition of USP7 activity
Procedure, shortened: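 Full-length USP7 (0.5 nM) in 50 mM HEPES pH 7.5, 150 mM NaCl, 1 mM DTT, 1 mg/ml BSA, 0.05% Tween20 was preincubated 15 min with DTT at room temperature before compound addition.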

Sequence of full-length USP7 (Q93009 whole entry): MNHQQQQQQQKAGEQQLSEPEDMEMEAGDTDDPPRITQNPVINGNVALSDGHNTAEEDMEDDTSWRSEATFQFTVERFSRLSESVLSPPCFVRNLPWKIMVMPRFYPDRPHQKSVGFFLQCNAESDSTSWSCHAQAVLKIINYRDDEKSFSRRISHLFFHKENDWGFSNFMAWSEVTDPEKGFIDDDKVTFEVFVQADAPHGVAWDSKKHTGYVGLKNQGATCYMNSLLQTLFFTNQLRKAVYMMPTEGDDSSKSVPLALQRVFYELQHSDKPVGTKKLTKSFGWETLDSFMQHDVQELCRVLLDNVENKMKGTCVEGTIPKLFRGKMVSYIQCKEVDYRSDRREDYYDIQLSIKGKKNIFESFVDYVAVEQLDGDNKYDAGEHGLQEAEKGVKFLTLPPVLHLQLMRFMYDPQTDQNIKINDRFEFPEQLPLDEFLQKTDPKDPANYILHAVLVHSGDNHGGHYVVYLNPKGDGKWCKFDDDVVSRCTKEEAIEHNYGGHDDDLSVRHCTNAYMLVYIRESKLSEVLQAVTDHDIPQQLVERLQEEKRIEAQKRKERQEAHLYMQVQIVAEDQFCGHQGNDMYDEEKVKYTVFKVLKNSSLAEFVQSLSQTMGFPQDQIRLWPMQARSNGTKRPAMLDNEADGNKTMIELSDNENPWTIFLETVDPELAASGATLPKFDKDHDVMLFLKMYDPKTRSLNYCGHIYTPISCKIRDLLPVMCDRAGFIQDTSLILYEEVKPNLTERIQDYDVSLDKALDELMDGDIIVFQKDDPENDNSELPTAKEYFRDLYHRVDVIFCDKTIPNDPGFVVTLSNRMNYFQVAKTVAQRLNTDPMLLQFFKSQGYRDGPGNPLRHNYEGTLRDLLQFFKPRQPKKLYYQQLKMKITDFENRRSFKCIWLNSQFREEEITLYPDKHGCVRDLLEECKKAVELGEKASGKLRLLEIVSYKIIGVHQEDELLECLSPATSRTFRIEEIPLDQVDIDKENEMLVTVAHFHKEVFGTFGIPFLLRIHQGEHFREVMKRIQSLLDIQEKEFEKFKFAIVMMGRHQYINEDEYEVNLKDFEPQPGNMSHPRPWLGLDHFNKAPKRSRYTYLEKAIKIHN

IC50 [nM]	inhibition at 1 µM [%]	Molecule
< 500		Cc1cc(C(F)(F)F)nc(-c2ccnc3cc(CN4C(=O)C5C(C4=O)C5(C)C)sc23)c1C(=O)N1C[C@@H](N)C2(CC2)C1 (stereo partly drawn) [Example 173, 3-((7-(3-((S)-7-amino-5-azaspiro[2.4]heptane-5-carbonyl)-4-methyl-6-(trifluoromethyl)pyridin-2-yl)thieno[3,2-b]pyridin-2-yl)methyl)-6,6-dimethyl-3-azabicyclo[3.1.0]hexane-2,4-dione hydrochloride]
	50 to 70	CN[C@H]1CCN(C(=O)c2c(C)cc(C(F)(F)F)nc2-c2ccnc3c(F)c(CN4C(=O)C5C(C4=O)C5(C)C)sc23)C1 (stereo partly drawn) [Example 174, 3-((3-fluoro-7-(4-methyl-3-((S)-3-(methylamino)pyrrolidine-1-carbonyl)-6-(trifluoromethyl)pyridin-2-yl)thieno[3,2-b]pyridin-2-yl)methyl)-6,6-dimethyl-3-azabicyclo[3.1.0]hexane-2,4-dione hydrochloride]
< 500		Cc1cc(Cl)cc(-c2ccnc3cc(CN4C(=O)C5C(C4=O)C5(C)C)sc23)c1NC1CCNC1 (stereo not drawn) [Example 175, 3-((7-(5-chloro-3-methyl-2-(pyrrolidin-3-ylamino)phenyl)thieno[3,2-b]pyridin-2-yl)methyl)-6,6-dimethyl-3-azabicyclo[3.1.0]hexane-2,4-dione hydrochloride]
	< 20	Cc1c(N)cc(-c2ccnc3cc(CN4C(=O)C5C(C4=O)C5(C)C)sc23)n1C[C@@H]1CNCCO1 (stereo partly drawn) [Example 176, 3-((7-(4-amino-5-methyl-1-(((S)-morpholin-2-yl)methyl)-1H-pyrrol-2-yl)thieno[3,2-b]pyridin-2-yl))methyl)-6,6-dimethyl-3-azabicyclo[3.1.0]hexane-2,4-dione hydrochloride]
	< 20	Cc1c(N(C)C)cc(-c2ccnc3cc(CN4C(=O)C5C(C4=O)C5(C)C)sc23)n1C[C@@H]1CNCCO1 (stereo partly drawn) [Example 177, 3-((7-(4-(dimethylamino)-5-methyl-1-(((S)-morpholin-2-yl)methyl)-1H-pyrrol-2-yl)thieno[3,2-b]pyridin-2-yl)methyl)-6,6-dimethyl-3-azabicyclo[3.1.0]hexane-2,4-dione hydrochloride]
< 500		Cc1cc(Cl)cc(-c2ccnc3cc(CC4NCCNC4=O)sc23)c1O[C@H]1CCCNC1 (stereo partly drawn) [Example 178, 3-((7-(5-chloro-3-methyl-2-(((S)-piperidin-3-yl)oxy)phenyl)thieno[3,2-b]pyridin-2-yl)methyl)piperazin-2-one hydrochloride]
< 500		Cc1cc(Cl)cc(-c2ccnc3cc(CC4C(=O)NCC4O)sc23)c1O[C@H]1CCCNC1 (stereo partly drawn) [Example 179, 3-((7-(5-chloro-3-methyl-2-(((S)-piperidin-3-yl)oxy)phenyl)thieno[3,2-b]pyridin-2-yl)methyl)-4-hydroxypyrrolidin-2-one 2,2,2-trifluoroacetate]

Molecule	IC50 [nM]	inhibition at 1 µM [%]
N-(2-(2-((6,6-dimethyl-2,4-dioxo-3-azabicyclo[3.1.0]hexan-3-yl)methyl)thieno[3,2-b]pyridin-7-yl)-4-methyl-6-(trifluoromethyl)pyridin-3-yl)azetidine-3-carboxamide 2,2,2-trifluoroacetate [Example 28]	< 500	
ethyl 5-(2-((6,6-dimethyl-2,4-dioxo-3-azabicyclo[3.1.0]hexan-3-yl)methyl)thieno[3,2-b]pyridin-7-yl)-2-methyl-1-(((S)-morpholin-2-yl)methyl)-1H-pyrrole-3-carboxylate 2,2,2-trifluoroacetate [Example 148]	1000 to 10000	
